Molecules are shown by their SMILES. Some results are limits rather than exact numbers.

The target of this test is T1, Solute carrier family 15 member 1 (Homo sapiens) (UniProt P46059).
T1 sequence (whole entry): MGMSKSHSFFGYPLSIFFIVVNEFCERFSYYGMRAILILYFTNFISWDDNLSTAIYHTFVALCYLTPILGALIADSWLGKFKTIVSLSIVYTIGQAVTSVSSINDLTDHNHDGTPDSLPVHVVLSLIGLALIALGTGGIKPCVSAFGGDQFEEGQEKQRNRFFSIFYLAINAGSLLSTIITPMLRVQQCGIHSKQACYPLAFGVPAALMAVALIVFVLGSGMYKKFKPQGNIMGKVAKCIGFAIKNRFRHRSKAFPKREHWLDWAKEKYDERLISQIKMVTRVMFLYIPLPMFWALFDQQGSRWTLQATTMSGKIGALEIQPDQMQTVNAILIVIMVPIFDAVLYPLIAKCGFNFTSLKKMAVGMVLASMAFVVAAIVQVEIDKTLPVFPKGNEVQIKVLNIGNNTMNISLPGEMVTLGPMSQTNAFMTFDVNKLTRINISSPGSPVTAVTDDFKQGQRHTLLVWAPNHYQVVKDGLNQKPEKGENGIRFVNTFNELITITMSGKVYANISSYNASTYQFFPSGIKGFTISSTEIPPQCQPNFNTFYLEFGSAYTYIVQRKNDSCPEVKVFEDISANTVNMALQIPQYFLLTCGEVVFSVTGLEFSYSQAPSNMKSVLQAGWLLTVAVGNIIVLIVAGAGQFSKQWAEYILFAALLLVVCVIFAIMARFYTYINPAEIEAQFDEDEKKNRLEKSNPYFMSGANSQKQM
In words: Inhibition of human PEPT1-mediated [3H]GlySar uptake in CHO cells at 1 mM. The format is cell-based.
For `Cc1c(CC(=O)NCCCC[C@H](N)C(=O)N[C@@H](CO)C(=O)O)c(=O)oc2cc(N)c(S(=O)(=O)O)cc12`, the inhibition was < 22%.
Turning to `Cc1c(CC(=O)NCCCC[C@H](N)C(=O)N[C@@H](C)C(=O)O)c(=O)oc2cc(N)c(S(=O)(=O)O)cc12`, the inhibition is < 22%.
As for `Cc1c(CC(=O)NCCCC[C@H](N)C(=O)N[C@H](C(=O)O)C(C)C)c(=O)oc2cc(N)c(S(=O)(=O)O)cc12`, the figure is 40%.
